Measurements from article PMC9866630, “Synthesis, Biological Evaluation and Molecular Modeling Studies of Naphthoquinone Sulfonamides and Sulfonate Ester Derivatives as P2X7 Inhibitors” (Molecules, 2023).

How the values were obtained:
P2X7R = tested on: P2X7R; set-up: method as in PMID 24314880; settings: read-out: EC50 for P2X7R activation; cited from earlier work
mP2X7R = molecular target: T1, mP2X7R (Mus musculus, UniProt Q9Z1M0); assay: ATP-induced IL-1β release ELISA in mouse peritoneal macrophages; assay type: cell-based; settings: LPS priming, ATP 30 min
T1 construct: P2X7 receptor expressed in peritoneal macrophages; endogenous in cells; host or cells: mouse peritoneal macrophages (primary)
T1 sequence (Q9Z1M0 1-595): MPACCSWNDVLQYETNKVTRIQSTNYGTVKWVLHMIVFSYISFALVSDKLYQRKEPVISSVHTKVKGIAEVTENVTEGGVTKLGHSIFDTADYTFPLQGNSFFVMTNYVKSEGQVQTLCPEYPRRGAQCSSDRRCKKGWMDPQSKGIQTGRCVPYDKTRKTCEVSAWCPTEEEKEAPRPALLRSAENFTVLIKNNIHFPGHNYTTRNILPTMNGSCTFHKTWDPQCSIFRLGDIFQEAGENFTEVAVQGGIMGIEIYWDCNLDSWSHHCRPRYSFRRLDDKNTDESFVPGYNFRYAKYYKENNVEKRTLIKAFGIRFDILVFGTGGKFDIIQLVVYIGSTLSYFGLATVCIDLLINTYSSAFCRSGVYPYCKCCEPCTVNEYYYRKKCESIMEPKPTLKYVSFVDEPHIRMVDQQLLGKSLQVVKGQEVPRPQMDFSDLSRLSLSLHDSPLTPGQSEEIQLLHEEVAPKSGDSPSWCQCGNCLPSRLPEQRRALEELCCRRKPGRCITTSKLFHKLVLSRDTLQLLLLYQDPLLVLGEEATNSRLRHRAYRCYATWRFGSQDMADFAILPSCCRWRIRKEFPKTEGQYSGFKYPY
Protocol: (§1) The monocytic THP-1 cell line used in this experiment was donated by the Laboratory of Applied Pharmacology, Institute of Drug Technology (Farmanguinhos), Rio de Janeiro, Brazil. Cells were plated at 2 × 10^5 cells/well in 96-well culture plates maintained in RPMI containing 10% fetal bovine serum (FBS), penicillin (100 U/mL), and streptomycin ([…]) in a humidified 5% CO2 atmosphere at 37 °C. Then, the cells were primed with Escherichia coli lipopolysaccharide (LPS, serotype 0127: B8) four hours before ATP stimulation for 30 min. Mouse peritoneal macrophages were primed with 10 ng/mL interferon-γ (IFN-γ) for 24 h and posteriorly stimulated with Escherichia coli lipopolysaccharide (LPS, serotype 0127: B8). The P2X7R antagonist A740003 and naphthoquinone derivatives were preincubated for 30 min before ATP addition. IL-1β was determined according to a standard kit (Bioscience, San Diego, CA, USA and Abcam, Cambridge Biomedical Campus, Cambridge, UK).

hP2X7R = molecular target: T2, hP2X7R (Homo sapiens, UniProt Q99572); assay: ATP-induced IL-1β release ELISA in THP-1 cells; assay type: cell-based; settings: human THP-1 cells, LPS 4 h, ATP 30 min
T2 construct: The monocytic THP-1 cell line used in this experiment was donated; endogenous in cells; host or cells: THP-1 human monocytic cell line
T2 sequence (Q99572 1-595): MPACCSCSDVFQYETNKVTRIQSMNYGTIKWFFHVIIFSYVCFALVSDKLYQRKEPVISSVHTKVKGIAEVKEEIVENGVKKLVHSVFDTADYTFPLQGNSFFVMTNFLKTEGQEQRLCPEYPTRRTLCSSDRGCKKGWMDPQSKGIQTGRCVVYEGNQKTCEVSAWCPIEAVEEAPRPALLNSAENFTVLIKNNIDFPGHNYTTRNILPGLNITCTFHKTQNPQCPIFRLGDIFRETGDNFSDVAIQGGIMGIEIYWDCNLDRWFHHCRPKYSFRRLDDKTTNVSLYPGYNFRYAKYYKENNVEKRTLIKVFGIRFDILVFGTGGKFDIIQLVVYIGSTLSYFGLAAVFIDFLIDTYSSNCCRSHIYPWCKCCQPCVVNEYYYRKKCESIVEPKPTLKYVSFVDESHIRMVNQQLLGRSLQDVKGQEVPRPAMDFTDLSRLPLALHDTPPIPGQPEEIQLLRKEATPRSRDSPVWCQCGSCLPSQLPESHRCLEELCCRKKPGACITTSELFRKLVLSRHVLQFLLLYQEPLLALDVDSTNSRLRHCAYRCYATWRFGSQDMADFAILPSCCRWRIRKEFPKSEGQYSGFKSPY
Protocol: as §1

P2X7 receptor = molecular target: T3, P2X7 receptor (Mus musculus, UniProt Q9Z1M0); assay: ATP-induced propidium iodide dye uptake assay (P2X7R-associated pore formation); assay type: cell-based; settings: pretreatment 10 min, 5 mM ATP 15 min, peritoneal macrophages; for Inhibition of ATP-induced PI uptake / inhibition at 10 µM: 10 µM; for inhibition at 10 µM: P2X7, read-out: Inhibition of ATP-induced PI uptake; for IC50: read-out: IC50 ATP-induced PI uptake
T3 construct: P2X7 receptor expressed in peritoneal macrophages; endogenous in cells; host or cells: mouse peritoneal macrophages (primary)
T3 sequence (Q9Z1M0 1-595): T1 sequence (Q9Z1M0 1-595)
Protocol: (§2) The animals used in these experiments were furnished by the animal breeding unit at Pavilion Hélio and Peggy Pereira at FIOCRUZ/IOC. The Institutional Animal Ethics Committee approved all experimental protocols under number L039-2016. Peritoneal macrophages were isolated from euthanized mice (weighing between 20 and 30 g) by injection of 10 mL phosphate-buffered saline (PBS) into the peritoneum of each animal. Then, the solution was completely removed from the peritoneal cavity using a syringe and transferred to 50 mL sterile tubes. Tubes were centrifuged at 1500 rpm for 5 min. The supernatant was discarded, and the pellet was resuspended in RPMI medium supplemented with 10% SFB and 1% antibiotic. The cells were counted and seeded in plates. After 40 min, the supernatant from each well was discarded to remove cells other than macrophages, and then RPMI medium was added. The macrophages were maintained in RPMI medium supplemented with 10% SFB and 1% antibiotic in a humid atmosphere at 37 °C containing 5% CO2 during the experiments.
To evaluate P2X7R-associated pore formation, a propidium iodide (PI) uptake assay was used. Peritoneal macrophages (3.0 × 10^5/well) were incubated with naphthoquinone derivatives and the inhibitor BBG (Brilliant Blue G, Sigma-Aldrich) at 10 µM and 750 nM, respectively, for 10 min. Subsequently, cells were exposed to 5 mM ATP for 15 min, and in the last 5 min, they were incubated with 1 µM PI dye. At the end of the incubation period, fluorescence was measured using a SpectraMax M5 spectrophotometer at 493/636 nm (excitation/emission). Compounds with inhibition values higher than 50% were selected to evaluate their inhibitory activity at varying concentrations. The inhibition curve was obtained using compounds at concentrations of 0.01 µM, 1 µM, 10 µM, 50 µM, and 100 µM. The controls and the procedure were the same.

mouse peritoneal cells = assay: LDH release cytotoxicity assay; assay type: cell-based; settings: 24 h, increasing concentrations
Protocol: as §2
Peritoneal macrophages (3.0 × 10^5 cells/well) were grown in 96-well plates and kept in an oven at 37 °C under a 5% CO2 atmosphere. […] The assay was finished by the addition of the LDH kit’s reagent (Kit CytoTox 96® Non-Radioactive Cytotoxicity Assay, Promega, Madison, WI, USA), prepared according to the manufacturer’s instructions. After 30 min of reaction, a stop solution was added, and the absorbance was measured at 490 nm.

ATP-induced paw edema = ATP-induced paw edema assay; assay type: in vivo, Swiss Webster mice; settings: mice, intraperitoneal pretreatment, intra-plantar ATP, edema measured 30 min after ATP
Protocol: Paw edema in mice was induced by intra-plantar administration of ATP (10 mg/paw) for 30 min. Animals were pretreated intraperitoneally with the standard P2X7R antagonist A740003 (1 mg/kg) and the selected compounds PS01, PS02, PS03, PS09, and PS10 (1 mg/kg) for 60 min before ATP administration. Edema formation was determined with a mouse plethysmometer (UGO Basile, Gemonio, Italy) before ATP injection compared with saline injection in the contralateral paw edema.

SMILES | IC50 (mP2X7R) [µM] | IC50 (hP2X7R) [µM] | Inhibition of ATP-induced PI uptake (P2X7 receptor) | also measured
Nc1ncnc2c1ncn2[C@@H]1O[C@H](COP(=O)(O)OP(=O)(O)OP(=O)(O)O)[C@@H](O)[C@H]1O [ATP, Adenosine triphosphate] |  |  |  | EC50 (P2X7R): > 100000 nM
CCOc1ccc(Nc2ccc(/C(=C3C=C/C(=[N+](/CC)Cc4cccc(S(=O)(=O)[O-])c4)C=C/3C)c3ccc(N(CC)Cc4cccc(S(=O)(=O)O)c4)cc3C)cc2)cc1 [BBG, Brilliant Blue G, reference compound] | 24 ± 3 | 16 ± 2 |  | 
COc1ccc(CC(=O)NC(N=C(NC#N)Nc2cccc3ncccc23)C(C)(C)C)cc1OC (stereo not shown) [Compound A740003, reference compound] | 0.9 ± 0.1 | 0.85 ± 0.1 | inhibited the ATP effect | 
O=C1C=C(Nc2ccc(NS(=O)(=O)c3ccccc3)cc2)C(=O)c2ccccc21 [PS01] | 5 ± 1 | 4 ± 2 |  | IC50 values (CC50), LDH activity (mouse peritoneal cells): 201000 ± 11000 nM; ID50 ATP−induced edema formation (ATP-induced paw edema): 0.128 ± 0.016 µg/kg; inhibition at 10 µM (P2X7 receptor): > 50%; IC50 (P2X7 receptor): 1000 ± 100 nM
O=C1C=C(Nc2ccc(NS(=O)(=O)c3ccc(F)cc3)cc2)C(=O)c2ccccc21 [PS02] | 3 ± 0.2 | 3 ± 0.3 |  | IC50 values (CC50), LDH activity (mouse peritoneal cells): 298000 ± 16000 nM; ID50 ATP−induced edema formation (ATP-induced paw edema): 0.093 ± 0.008 µg/kg; inhibition at 10 µM (P2X7 receptor): > 50%; IC50 (P2X7 receptor): 300 ± 3 nM
Cc1ccc(S(=O)(=O)Nc2ccc(NC3=CC(=O)c4ccccc4C3=O)cc2)cc1 [PS03] | 1.5 ± 0.4 | 1 ± 0.4 |  | IC50 values (CC50), LDH activity (mouse peritoneal cells): 322000 ± 20000 nM; ID50 ATP−induced edema formation (ATP-induced paw edema): 0.067 ± 0.005 µg/kg; inhibition at 10 µM (P2X7 receptor): > 50%; IC50 (P2X7 receptor): 70 ± 3 nM
O=C1C=C(Nc2ccc(NS(=O)(=O)c3ccc4ccccc4c3)cc2)C(=O)c2ccccc21 [PS04] |  |  | did not show inhibitory effects | 
O=C1C=C(Nc2ccc(NS(=O)(=O)c3ccc([N+](=O)[O-])cc3)cc2)C(=O)c2ccccc21 [PS05] |  |  | did not show inhibitory effects | 
O=C1C(Cl)=C(Nc2ccc(NS(=O)(=O)c3ccccc3)cc2)C(=O)c2ccccc21 [PS06] |  |  | did not show inhibitory effects | 
Cc1ccc(S(=O)(=O)Nc2ccc(NC3=C(Cl)C(=O)c4ccccc4C3=O)cc2)cc1 [PS07] |  |  | did not show inhibitory effects | 
O=C1C(Cl)=C(Nc2ccc(NS(=O)(=O)c3ccc(F)cc3)cc2)C(=O)c2ccccc21 [PS08] |  |  | did not show inhibitory effects | 
O=C1C(Cl)=C(Nc2ccc(NS(=O)(=O)c3ccc4ccccc4c3)cc2)C(=O)c2ccccc21 [PS09] | 0.09 ± 0.01 | 0.02 ± 0.002 |  | IC50 values (CC50), LDH activity (mouse peritoneal cells): 401000 ± 18000 nM; ID50 ATP−induced edema formation (ATP-induced paw edema): 0.0098 ± 0.0007 µg/kg; inhibition at 10 µM (P2X7 receptor): > 50%; IC50 (P2X7 receptor): 8 ± 0.1 nM
O=C1C(Cl)=C(Nc2ccc(NS(=O)(=O)c3ccc([N+](=O)[O-])cc3)cc2)C(=O)c2ccccc21 [PS10] | 0.7 ± 0.1 | 0.3 ± 0.06 |  | IC50 values (CC50), LDH activity (mouse peritoneal cells): 351000 ± 21000 nM; ID50 ATP−induced edema formation (ATP-induced paw edema): 0.0136 ± 0.016 µg/kg; inhibition at 10 µM (P2X7 receptor): > 50%; IC50 (P2X7 receptor): 10 ± 2 nM
NC1=CC(=O)c2cccc(OS(=O)(=O)c3ccccc3)c2C1=O [PS11] |  |  | did not show inhibitory effects | 
Cc1ccc(S(=O)(=O)Oc2cccc3c2C(=O)C(N)=CC3=O)cc1 [PS12] |  |  | did not show inhibitory effects | 
NC1=CC(=O)c2cccc(OS(=O)(=O)c3ccc(F)cc3)c2C1=O [PS13] |  |  | did not show inhibitory effects | 
NC1=CC(=O)c2cccc(OS(=O)(=O)c3ccc4ccccc4c3)c2C1=O [PS14] |  |  | did not show inhibitory effects | 
NC1=CC(=O)c2cccc(OS(=O)(=O)c3ccc([N+](=O)[O-])cc3)c2C1=O [PS15] |  |  | did not show inhibitory effects | 
